Data from ChEMBL document CHEMBL1949547, “Computer-assisted rational design, synthesis, and bioassay of non-steroidal anti-inflammatory agents” (2012).

Assays:
Type in all cases: functional
Conditions in all cases: route intraperitoneal
Rattus norvegicus [1] = assay: Antiinflammatory activity in Wister albino rat assessed as inhibition of carrageenan-induced paw edema at 50 mg/kg, ip administered 1 hr before carrageenan challenge measured after 24 hrs by plethysmometer relative to control
Rattus norvegicus [2] = assay: Antiinflammatory activity in Wister albino rat assessed as inhibition of carrageenan-induced paw edema at 50 mg/kg, ip administered 1 hr before carrageenan challenge measured after 2 hrs by plethysmometer relative to control
Rattus norvegicus [3] = assay: Antiinflammatory activity in Wister albino rat assessed as inhibition of carrageenan-induced paw edema at 50 mg/kg, ip administered 1 hr before carrageenan challenge measured after 4 hrs by plethysmometer relative to control
Rattus norvegicus [4] = assay: Antiinflammatory activity in Wister albino rat assessed as inhibition of carrageenan-induced paw edema at 50 mg/kg, ip administered 1 hr before carrageenan challenge measured after 3 hrs by plethysmometer relative to control
Rattus norvegicus [5] = assay: Antiinflammatory activity in Wister albino rat assessed as inhibition of carrageenan-induced paw edema at 50 mg/kg, ip administered 1 hr before carrageenan challenge measured after 1 hr by plethysmometer relative to control
Rattus norvegicus [6] = assay: Antiinflammatory activity in Wister albino rat assessed as inhibition of carrageenan-induced paw edema at 50 mg/kg, ip administered 1 hr before carrageenan challenge measured after 4 hrs by plethysmometer relative to indomethacin
Rattus norvegicus [7] = assay: Antiinflammatory activity in Wister albino rat assessed as inhibition of carrageenan-induced paw edema at 10 mg/kg, ip administered 1 hr before carrageenan challenge measured after 2 hrs by plethysmometer relative to control
Rattus norvegicus [8] = assay: Antiinflammatory activity in Wister albino rat assessed as inhibition of carrageenan-induced paw edema at 10 mg/kg, ip administered 1 hr before carrageenan challenge measured after 1 hr by plethysmometer relative to control
Rattus norvegicus [9] = assay: Antiinflammatory activity in Wister albino rat assessed as inhibition of carrageenan-induced paw edema at 10 mg/kg, ip administered 1 hr before carrageenan challenge measured after 24 hrs by plethysmometer relative to control
Rattus norvegicus [10] = assay: Antiinflammatory activity in Wister albino rat assessed as inhibition of carrageenan-induced paw edema at 10 mg/kg, ip administered 1 hr before carrageenan challenge measured after 3 hrs by plethysmometer relative to control
Rattus norvegicus [11] = assay: Antiinflammatory activity in Wister albino rat assessed as inhibition of carrageenan-induced paw edema at 10 mg/kg, ip administered 1 hr before carrageenan challenge measured after 4 hrs by plethysmometer relative to control

| SMILES | inhibition in vivo at 50 mg/kg (Rattus norvegicus [1]) | inhibition in vivo at 50 mg/kg (Rattus norvegicus [2]) | inhibition in vivo at 50 mg/kg (Rattus norvegicus [3]) | inhibition in vivo at 50 mg/kg (Rattus norvegicus [4]) | inhibition in vivo at 50 mg/kg (Rattus norvegicus [5]) | inhibition in vivo at 50 mg/kg (Rattus norvegicus [6]) | also measured |
| --- | --- | --- | --- | --- | --- | --- | --- |
| CCOC(=O)c1c(-c2ccc(Cl)cc2)cc(-c2ccccc2)nc1N1CCCCC1 | 36.4% | 29.1% | 70.1% | 24% | 59.3% | 103% |  |
| CCOC(=O)c1c(-c2ccc(Cl)c(Cl)c2)cc(-c2ccccc2)nc1N1CCCCC1 | 48.9% | 67.9% | 64.7% | 46.3% | 53.5% | 95.1% |  |
| CCOC(=O)c1c(-c2ccc(Cl)cc2)cc(-c2ccccc2)nc1N1CCOCC1 | 61.7% | 54.5% | 81.3% | 69.8% | 59.5% | 120% |  |
| CCOC(=O)c1c(-c2ccc(Cl)c(Cl)c2)cc(-c2ccccc2)nc1N1CCOCC1 | 61.6% | 74.3% | 65.7% | 67.7% | 63.5% | 96.6% |  |
| CCOC(=O)c1c(-c2ccc(Cl)cc2)cc(-c2ccccc2)nc1N1CCN(C)CC1 | 53.2% | 39.6% | 37.8% | 67.8% | 65.8% | 55.6% |  |
| CCOC(=O)c1c(-c2ccc(Cl)cc2)cc(-c2ccccc2)nc1Nc1ccccc1 | 46.5% | 73.9% | 83.8% | 73.7% | 62.3% | 123% |  |
| CCOC(=O)c1c(-c2ccc(Cl)cc2)cc(-c2ccccc2)nc1Nc1ccc(C)cc1 | 62.7% | 32.6% | 61.8% | 82.4% | 69.5% | 90.9% |  |
| CCOC(=O)c1c(-c2ccc(Cl)c(Cl)c2)cc(-c2ccccc2)nc1Nc1ccc(C)cc1 | 40.8% | 62.1% | 59.8% | 59.3% | 59% | 87.9% |  |
| CCOC(=O)c1c(-c2ccc(Cl)cc2)cc(-c2ccccc2)nc1Nc1ccc(OC)cc1 | 39.6% | 61.1% | 38.9% | 68.8% | 33.3% | 57.2% |  |
| CCOC(=O)c1c(-c2ccc(Cl)cc2)cc(-c2ccccc2)nc1Nc1ccc(Cl)cc1 | 32.9% | 40.6% | 65.2% | 31.2% | 44.6% | 95.9% |  |
| CCOC(=O)c1c(-c2ccc(Cl)c(Cl)c2)cc(-c2ccccc2)nc1Nc1ccc(Cl)cc1 | 52.7% | 61.9% | 62.4% | 62.2% | 46.2% | 91.8% |  |
| CCOC(=O)c1c(-c2ccc(F)cc2)cc(-c2ccccc2)nc1Nc1ccc(Cl)cc1 |  |  | 78.4% |  |  |  |  |
| CCOC(=O)c1c(-c2ccc(C)cc2)cc(-c2ccccc2)nc1Nc1ccc(OC)cc1 |  |  | 89.4% |  |  |  |  |
| CCOC(=O)c1c(-c2ccc(F)cc2)cc(-c2ccccc2)nc1N1CCCCC1 |  |  | 76% |  |  |  |  |
| CCOC(=O)c1c(-c2ccc(C)cc2)cc(-c2ccccc2)nc1N1CCCCC1 |  |  | 78% |  |  |  |  |
| CCOC(=O)c1c(-c2ccc(C)cc2)cc(-c2ccccc2)nc1N1CCOCC1 |  |  | 73% |  |  |  |  |
| CCOC(=O)c1c(-c2ccc(C)cc2)cc(-c2ccccc2)nc1Nc1ccc(Cl)cc1 |  |  | 79.4% |  |  |  |  |
| CCOC(=O)c1c(-c2ccc(F)cc2)cc(-c2ccccc2)nc1Nc1ccccc1 |  |  | 76% |  |  |  |  |
| CCOC(=O)c1c(-c2ccc(F)cc2)cc(-c2ccccc2)nc1N1CCOCC1 |  |  | 72.7% |  |  |  |  |
| N#Cc1c(-c2ccc(N3CCCCC3)cc2)c(C#N)c2n(Cc3ccccc3)c([S-])n[n+]2c1N |  |  | 67.4% |  |  |  |  |
| N#Cc1c(-c2ccc(N3CCOCC3)cc2)c(C#N)c2n(Cc3ccccc3)c([S-])n[n+]2c1N |  |  | 39.3% |  |  |  |  |
| CN1CCN(c2ccc(-c3c(C#N)c(N)[n+]4nc([S-])n(C)c4c3C#N)cc2)CC1 |  |  | 36.6% |  |  |  |  |
| C=CCn1c([S-])n[n+]2c(N)c(C#N)c(-c3ccc(N4CCOCC4)cc3)c(C#N)c12 |  |  | 60.6% |  |  |  |  |
| Cn1c([S-])n[n+]2c(N)c(C#N)c(-c3ccc(N4CCOCC4)cc3)c(C#N)c12 |  |  | 45.4% |  |  |  |  |
| Cn1c([S-])n[n+]2c(N)c(C#N)c(-c3ccc(N4CCCCC4)cc3)c(C#N)c12 |  |  | 51.1% |  |  |  |  |
| C=CCn1c([S-])n[n+]2c(N)c(C#N)c(-c3ccc(N4CCCCC4)cc3)c(C#N)c12 |  |  | 68.5% |  |  |  |  |
| COc1ccc2c(c1)c(CC(=O)O)c(C)n2C(=O)c1ccc(Cl)cc1 [INDOMETHACIN] |  |  |  |  |  | 100% | inhibition in vivo at 10 mg/kg (Rattus norvegicus [7]): 59.9%; inhibition in vivo at 10 mg/kg (Rattus norvegicus [8]): 62.8%; inhibition in vivo at 10 mg/kg (Rattus norvegicus [9]): 76.9%; inhibition in vivo at 10 mg/kg (Rattus norvegicus [10]): 64.8%; inhibition in vivo at 10 mg/kg (Rattus norvegicus [11]): 68% |
